The values that follow come from US8338173B2, “Preparation of antigen-presenting human γδ T cells and use in immunotherapy” (University College Cardiff Consultants Limited, priority 2005, dated 2012).

The subject of experiment [1] is M1p58-66-specific CD8^+ αβ T cell clone FLUMA55. In kind it is cell-based, human.
Experiment [2] deals with Vγ9Vδ2^+ T cells. Nature of the experiment: Expression of cell surface APC markers during γδ T cell activation with inhibitors. The settings on record: FIG. 19 B.
For experiment [3], the system named is naïve CD4^+ αβ T cells. In kind it is cell-based, human.
The test system of experiment [4] is Melp26-35-specific, HLA-A2-restricted CD8^+ αβ T cell clone LAU 337. It is filed as cell-based, human.

As for `C[C@H]1CCC/C=C/[C@@H]2C[C@H](O)C[C@H]2[C@H](O)/C=C/C(=O)O1` [brefeldin A], in experiment [1], the “inhibition of M1 cross-presentation in γδ T-APCs and DCs” value (from here on “inhibition … in γδ T-APCs and DCs”) is recorded as “fully inhibited”; the “responses to M1p58-66 pulsed APCs” value is given as “only partially affected”. Also, in experiment [2], the “expression of cell surface APC markers (MHC II, CD71, CD80, CD86) after TCR-triggering” value is “inhibited”. As to `CCN(CC)CCCC(C)Nc1ccnc2cc(Cl)ccc12` (stereo not drawn) [chloroquin], in experiment [1], the “inhibition … in γδ T-APCs and DCs” value was not above 50%. Consider `CC(=O)N[C@@H](CSC(=O)[C@]1([C@@H](O)C(C)C)NC(=O)[C@H](C)[C@@H]1O)C(=O)O` [lactacystin], for which, in experiment [1], the “inhibition … in γδ T-APCs and DCs” value is reported as “fully inhibited”; the “responses to M1p58-66 pulsed APCs” value is on record as “only partially affected”. Moreover, the “expression of cell surface APC markers (MHC II, CD71, CD80, CD86) after TCR-triggering” value in experiment [2] is “inhibited”. As to phytohemagglutinin [PHA], the “Vβ2^+ (%)” value in experiment [3] came out at 9%.

B1: Melan-A: melanocyte/melanoma-differentiation antigen (protein, UniProt Q16655 1-118, looked up)
Melanoma antigen recognized …: MPREDAHFIYGYPKKGHGHSYTTAEEAAGIGILTVILGVLLLIGCWYCRRRNGYRALMDKSLHVGTQCALTRRCPQEGFDHRDSKVSLQEKNCEPVVPNAPPAYEKLSAEQSPPPYSP
B1: in experiment [4], the “IFN-γ production in Melp26-35-specific responder cell clones” value is “failed to induce IFN-γ production”.
